Results published in publication PMC2831097, “Inhibition of L-Arginine Metabolizing Enzymes by L-Arginine-Derived Advanced Glycation End Products” (Journal of Clinical Biochemistry and Nutrition, 2010).
Where two headings read alike, the source gives them in different places.

What was measured:
[1] = target: T1, recombinant iNOS (Mus musculus, UniProt P29477); assay: NOS activity assay, conversion of L-[14C(U)]-arginine to L-[14C(U)]-citrulline, iNOS; assay type: biochemical; conditions: 50 µM L-arginine, 30 min at 37°C, pH 7.4; means ± SD (n = 4)
T1 construct: purchased Sigma Chemicals (St. Louis, MO)
From the text: (§1) L-Arginine, ADMA, N^G-hydroxy-L-arginine (NOHA), nicotinamide adenine dinucleotide phosphate reduced form (NADPH), flavin adenine dinucleotide (FAD), flavin mononucleotide (FMN), (6R)-5,6,7,8-tetrahydrobiopterin (BH4), recombinant eNOS (from bovine), iNOS (from mouse macrophage), Dowex® AG50W-X8 cation-exchange resin (mesh size, 100–200) were all purchased from Sigma Chemicals (St. Louis, MO). Ultima Gold XR scintillation liquid was from PerkinElmer (Shelton, CA). Recombinant nNOS (from rat) and N^G-hydroxy-nor-arginine (nor-NOHA) were obtained from Cayman Chemicals. Arginase (from bovine liver) was from Alexis Biochemicals (Lausen, Switzerland). […] All other chemicals were obtained from Wako Pure Chemical Industries, Osaka, Japan.
(§2) The NOS activities were determined by monitoring the conversion of L-[^14C(U)]-arginine (Moravek, Brea, CA) to L-[^14C(U)]-citrulline as previously described. Recombinant enzymes of three isoforms of NOS (specific activity: eNOS 0.03, nNOS 2.9, iNOS 0.62 units/mg protein) (10 µl) were added to a reaction mixture (final volume of 100 µl) consisting of 50 mM HEPES buffer (pH 7.4), 1 mM NADPH, 4 µM FAD, 4 µM FMN, 10 µM BH4, 1 mg/L calmodulin, 2.5 mM CaCl2, 50 µM L-arginine and 0.5 µCi/ml of L-[^14C(U)]-arginine (specific activity: 8.14–11.1 GBq/mmol). After incubation for 30 min at 37°C, the reactions were terminated by addition of 0.5 ml of 20 mM HEPES (pH 5.5) containing 2 mM EDTA and 2 mM EGTA. Samples were passed through a 1 ml column of Dowex AG50W-X8 (Na^+-form) to remove unconverted L-[^14C(U)]-arginine. L-[^14C(U)]-Citrulline was eluted twice with 1 ml of distilled water, and the eluted fractions mixed with 10 ml of cocktail (Ultima Gold XR) were quantified using a liquid scintillation counter. A reaction mixture containing L-[^14C(U)]-arginine without the enzyme was incubated as a control to determine background counts.

[2] = target: T2, recombinant nNOS (Rattus norvegicus, UniProt P29476); assay: NOS activity assay, conversion of L-[14C(U)]-arginine to L-[14C(U)]-citrulline, nNOS; assay type: biochemical; conditions: 50 µM L-arginine, 30 min at 37°C, pH 7.4; means ± SD (n = 4)
T2 construct: purchased Cayman Chemicals
From the text: as §1, §2

[3] = target: T3, recombinant eNOS (Bos taurus, UniProt P29473); assay: NOS activity assay, conversion of L-[14C(U)]-arginine to L-[14C(U)]-citrulline, eNOS; assay type: biochemical, bovine; conditions: 50 µM L-arginine, 30 min at 37°C, pH 7.4; means ± SD (n = 4)
T3 construct: purchased Sigma Chemicals (St. Louis, MO)
From the text: as §1, §2

[4] = target: T4, arginase (Bos taurus, UniProt Q2KJ64); assay: Arginase activity assay, conversion of L-[guanidine-14C]-arginine to [14C]-urea; assay type: biochemical, bovine; conditions: for IC50: 1 mM MnCl2, pH 9.6, 1 h at 37°C, means ± SD (n = 4); for inhibitory efficiency for arginase, fold weaker than NOHA: compared with NOHA (IC50 340 µM)
T4 construct: purchased Alexis Biochemicals (Lausen, Switzerland)
T4 sequence (Q2KJ64 1-322): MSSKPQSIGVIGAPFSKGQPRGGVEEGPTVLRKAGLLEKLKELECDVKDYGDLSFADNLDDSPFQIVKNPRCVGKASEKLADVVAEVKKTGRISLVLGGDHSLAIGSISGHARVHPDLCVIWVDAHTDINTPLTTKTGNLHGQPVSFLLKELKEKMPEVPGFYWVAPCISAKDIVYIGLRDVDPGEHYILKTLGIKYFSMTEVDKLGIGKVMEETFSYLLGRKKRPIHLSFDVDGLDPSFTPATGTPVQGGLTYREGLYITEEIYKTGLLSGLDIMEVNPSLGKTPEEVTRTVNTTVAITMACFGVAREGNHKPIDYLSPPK
From the text: L-Arginine, ADMA, N^G-hydroxy-L-arginine (NOHA), nicotinamide adenine dinucleotide phosphate reduced form (NADPH), flavin adenine dinucleotide (FAD), flavin mononucleotide (FMN), (6R)-5,6,7,8-tetrahydrobiopterin (BH4), recombinant eNOS (from bovine), iNOS (from mouse macrophage), Dowex® AG50W-X8 cation-exchange resin (mesh size, 100–200) were all purchased from Sigma Chemicals (St. Louis, MO). Ultima Gold XR scintillation liquid was from PerkinElmer (Shelton, CA). Recombinant nNOS (from rat) and N^G-hydroxy-nor-arginine (nor-NOHA) were obtained from Cayman Chemicals. Arginase (from bovine liver) was from Alexis Biochemicals (Lausen, Switzerland). L-NMMA was from Calbiochem, Darmstadt, Germany. All other chemicals were obtained from Wako Pure Chemical Industries, Osaka, Japan.
Assays for arginase activity were performed by monitoring the conversion of L-[guanidine-^14C]-arginine (Moravek, Brea, CA) to [^14C]-urea as previously described. Recombinant arginase (0.5 µg of protein, specific activity: 0.094 units/mg protein) (10 µl) was added to a mixture (final volume of 100 µl) containing 10 mM Tris-HCl buffer, pH 9.6, 1 mM MnCl2, and 0.16 µCi/ml of L-[guanidine-^14C]-arginine (specific activity: 1.85–2.22 GBq/mmol). After incubation for 1 h at 37°C, the reactions were terminated by addition of 0.4 ml of stop buffer containing 250 mM sodium acetate and 100 mM urea, pH 4.5. Samples were then passed through a 1 ml column of Dowex AG50W-8X (Na^+-form) to remove unmetabolized L-[guanidine-^14C]-arginine. [^14C]-Urea was eluted twice with 1 ml of distilled water, and the eluted fractions mixed with 10 ml of cocktail (Ultima Gold XR) were quantified using a liquid scintillation counter. A reaction mixture containing L-[guanidine-^14C]-arginine in the absence of enzyme was incubated as a control to determine background counts. The inhibitory effects of arginase were examined in the presence and absence of the test compounds at various concentrations.

[5] = target: T5, dimethylarginine dimethylaminohydrolase (DDAH) (Rattus norvegicus, UniProt O08557); assay: DDAH activity assay, conversion of L-[3H]-NMMA to L-[3H]-citrulline by rat kidney homogenate; assay type: biochemical
T5 construct: from tissue; host or cells: rat kidney homogenate supernatant
T5 sequence (O08557 whole entry): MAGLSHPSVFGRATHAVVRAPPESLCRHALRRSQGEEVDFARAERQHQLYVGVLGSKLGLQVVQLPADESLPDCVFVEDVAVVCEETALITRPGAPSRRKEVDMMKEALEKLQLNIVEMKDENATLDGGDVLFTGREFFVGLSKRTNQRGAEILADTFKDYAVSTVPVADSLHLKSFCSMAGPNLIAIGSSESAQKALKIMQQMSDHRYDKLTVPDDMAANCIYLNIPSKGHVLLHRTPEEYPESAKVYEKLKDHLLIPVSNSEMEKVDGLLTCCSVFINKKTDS
Description: The DDAH activity was determined by monitoring the conversion of L-[4,5-^3H]-NMMA (American Radiolabeled Chemicals, Inc., St. Louis, MO) to L-[^3H]-citrulline as previously described. Rat kidney tissues (0.5 g) were homogenized in 1 ml of ice-cold 0.1 M sodium phosphate buffer (SPB, pH 6.5), and then centrifuged at 10,000 rpm for 5 min at 4°C. The supernatants were analyzed for protein content using a BCA protein reagent kit with bovine serum albumin as the standard. The supernatants were diluted with SPB to 1 mg protein in 50 µl, and then were added to a reaction mixture (a final volume of 100 µl) containing 0.1 M SPB (pH 6.5) and 0.1 µCi/ml of L-[^3H]-NMMA (specific activity: 1.48–2.96 TBq/mmol). After incubation for 1 h at 37°C, the reactions were terminated by keeping the tubes on ice for 5 min. Samples were then passed through a 1 ml column of Dowex AG50W-8X (Na^+-form) to remove unmetabolized L-[^3H]-NMMA. L-[^3H]-Citrulline was eluted twice with 1 ml of distilled water, and the eluted fractions mixed with 10 ml of cocktail (Ultima Gold XR) were quantified using a liquid scintillation counter. A reaction mixture containing L-[^3H]-NMMA in the absence of enzyme was added to the Dowex column to determine background counts. The effects of arginine derivatives on the enzyme activities in the presence and absence of the test compounds at various concentrations were examined.

[6] = rat kidney extracts, SPB pH 6.5, 1 h at 37°C, means ± SD (n = 4), read-out: IC50 DDAH

| Compound | IC50 [1] [µM] | IC50 [2] [µM] | IC50 [3] [µM] | IC50 [4] [µM] | IC50 [5] [µM] | inhibitory efficiency for arginase, fold weaker than NOHA [4] | IC50 [5, 6] [µM] |
| --- | --- | --- | --- | --- | --- | --- | --- |
| CN(C)C(=N)NCCCC(N)C(=O)O [ADMA, asymmetric N^G,N^G-dimethyl-L-arginine, reference compound] | 24 ± 1 | 23 | 16 ± 9 |  |  |  |  |
| CC(NC(=N)NCCCC(N)C(=O)O)C(=O)O (stereo not shown) [CEA, N^ω-carboxyethyl-arginine] | > 5000 | > 5000 | 3870 ± 680 | > 5000 | > 5000 |  |  |
| N=C(NCCCC(N)C(=O)O)NCC(=O)O (stereo not shown) [CMA, N^ω-Carboxymethyl-arginine] | 1160 ± 40 | > 5000 | 830 ± 36 | 1470 ± 120 | > 5000 | approximately 3 fold |  |
| NC(CCCCNCC(=O)O)C(=O)O (stereo not shown) [CML, carboxymethyl-lysine] | > 5000 | 1930 ± 300 | > 5000 | 1060 ± 60 |  | approximately 3 fold | > 5000 |
| CC1NC(NCCCC(N)C(=O)O)=NC1=O (stereo not shown) [MG-H1, N^δ-(5-hydro-5-methyl-4-imidazolon-2-yl)-ornithine] | 2970 ± 560 | 4170 ± 380 | 1280 ± 75 | > 5000 |  |  | > 5000 |
| NC(=NCCCC(N)C(=O)O)NO [NOHA, N^G-hydroxy-L-arginine, reference compound] |  |  |  | 340 ± 12 |  |  |  |
| N=C(NO)NCC[C@H](N)C(=O)O [Nor-NOHA, N^G-hydroxy-nor-arginine, reference compound] |  |  |  | 230 ± 26 | 1770 ± 250 |  |  |
